Source: patent US20260069588A1, “VEPDEGESTRANT FOR USE IN TREATING CANCER” (Arvinas Operation, Inc., priority 2022, published 2026)
pIC50: −log10 of the molar value. Where two headings read alike, the source gives them in different places. Marks after values point to notes of the source that are not given here.

Assays:
[1] = Interconversion (epimerization) Compound A/Compound B in animals; format: in vivo, mouse, rat, dog, and monkey
hERG channel = hERG channel (Homo sapiens, UniProt Q12809); assay: hERG channel inhibition; format: biochemical
Description: The pivotal nonclinical safety studies were conducted in the US in accordance with GLP regulations per the US 21 CFR Part 58. These include the cardiovascular safety pharmacology study in dogs, the pivotal 28-day and 3-month repeat-dose toxicology studies in rats and dogs, and an in vitro phototoxicity assay. The bacterial reverse mutation assay, in vitro micronucleus assay, and 2 in vitro hERG studies were conducted in the UK in accordance with the UK Good Laboratory Practice Monitoring Authority, MHRA: Good Laboratory Practice Regulations 1999, Statutory Instrument 1999 No. 3106 as amended by the Good Laboratory Practice (Codification Amendments Etc.) Regulations, 2004, Statutory Instrument 2004, No. 994; and the OECD GLP and OECD Principles on Good Laboratory Practice ENV/MC/CHEM (98) 17 (Revised in 1997, Issued January 1998).accordance with the OECD Principles of Good Laboratory Practice and as accepted by Regulatory Authorities throughout the European Union, United States of America (FDA), Japan (MHLW), and other countries that are signatories to the OECD Mutual Acceptance of Data Agreement.

ER = biological target: T1, ER (Homo sapiens, UniProt P03372); assay: ER degradation in ER+ cell lines (MCF7); format: cell-based; set-up: endogenous in cells; host or cells: MCF7 (and a panel of unnamed ER+ cell lines)
T1 sequence (P03372 1-595): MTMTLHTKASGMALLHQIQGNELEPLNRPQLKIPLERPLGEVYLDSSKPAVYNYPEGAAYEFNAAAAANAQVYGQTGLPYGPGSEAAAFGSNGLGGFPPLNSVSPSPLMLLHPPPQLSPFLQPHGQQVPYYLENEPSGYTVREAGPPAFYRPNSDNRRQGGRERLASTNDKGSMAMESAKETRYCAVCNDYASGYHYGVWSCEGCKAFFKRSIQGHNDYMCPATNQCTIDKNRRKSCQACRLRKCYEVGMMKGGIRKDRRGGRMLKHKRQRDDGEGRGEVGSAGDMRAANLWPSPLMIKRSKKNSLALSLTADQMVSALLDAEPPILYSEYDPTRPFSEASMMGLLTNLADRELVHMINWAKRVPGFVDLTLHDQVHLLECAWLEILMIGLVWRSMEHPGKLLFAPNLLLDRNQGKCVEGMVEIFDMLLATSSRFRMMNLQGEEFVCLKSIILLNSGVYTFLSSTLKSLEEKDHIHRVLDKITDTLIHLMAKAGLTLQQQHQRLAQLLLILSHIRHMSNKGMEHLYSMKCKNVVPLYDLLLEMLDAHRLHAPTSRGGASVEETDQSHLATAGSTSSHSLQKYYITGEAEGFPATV

[2] = human, in vivo
clinical = conditions: human, in vivo
T47D cells = assay: Live-cell imaging proliferation, T47D; format: cell-based; conditions: Homo sapiens, 144 h, up to 6 days
Source text: (§1) Full growth of the cells over this time period is shown by extent of cell confluence with dimethyl sulfoxide (DMSO).

MCF7 cells = assay: Live-cell imaging proliferation, MCF7; format: cell-based; conditions: Homo sapiens, 144 h; MCF7, up to 6 days
Source text: as §1

[3] = Phase 2 study of Compound A or anastrozole in early ER+/HER2− breast cancer: adverse events; conditions: TEAE, Treatment Related per title; Compound A 200 mg N = 23, Anastrozole 1 mg N = 13

Sequence of hERG channel (Q12809 whole entry): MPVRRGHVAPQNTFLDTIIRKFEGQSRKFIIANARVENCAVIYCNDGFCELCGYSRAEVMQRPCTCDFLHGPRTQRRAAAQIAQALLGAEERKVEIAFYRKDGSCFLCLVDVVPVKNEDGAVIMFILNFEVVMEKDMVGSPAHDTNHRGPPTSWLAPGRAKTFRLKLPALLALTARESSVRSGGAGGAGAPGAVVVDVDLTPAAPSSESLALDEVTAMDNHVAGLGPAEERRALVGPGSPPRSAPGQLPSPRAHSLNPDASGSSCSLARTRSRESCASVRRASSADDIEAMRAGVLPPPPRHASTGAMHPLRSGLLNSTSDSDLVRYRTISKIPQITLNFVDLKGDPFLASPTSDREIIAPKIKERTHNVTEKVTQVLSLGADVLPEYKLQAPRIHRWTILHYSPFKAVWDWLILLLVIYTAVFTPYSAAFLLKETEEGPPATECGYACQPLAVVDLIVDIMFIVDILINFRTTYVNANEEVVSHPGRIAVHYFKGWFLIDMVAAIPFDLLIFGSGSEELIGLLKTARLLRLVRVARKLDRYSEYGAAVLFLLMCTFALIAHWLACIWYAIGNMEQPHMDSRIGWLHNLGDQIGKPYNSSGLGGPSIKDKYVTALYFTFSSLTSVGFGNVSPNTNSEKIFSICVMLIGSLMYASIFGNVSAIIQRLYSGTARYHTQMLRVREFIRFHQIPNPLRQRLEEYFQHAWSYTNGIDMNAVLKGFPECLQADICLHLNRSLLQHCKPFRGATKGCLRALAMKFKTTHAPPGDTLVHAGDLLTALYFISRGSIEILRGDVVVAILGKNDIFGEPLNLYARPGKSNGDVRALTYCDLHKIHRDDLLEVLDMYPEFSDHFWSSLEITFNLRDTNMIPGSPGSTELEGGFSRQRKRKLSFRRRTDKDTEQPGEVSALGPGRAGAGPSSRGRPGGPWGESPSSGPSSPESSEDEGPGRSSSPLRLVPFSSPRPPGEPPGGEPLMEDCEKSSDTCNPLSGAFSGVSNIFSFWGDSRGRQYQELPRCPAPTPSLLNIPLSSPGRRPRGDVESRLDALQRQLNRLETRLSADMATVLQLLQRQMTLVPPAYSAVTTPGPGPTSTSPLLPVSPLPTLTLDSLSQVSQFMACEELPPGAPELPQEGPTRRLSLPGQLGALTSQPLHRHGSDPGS

O=C1CC[C@@H](N2Cc3cc(N4CCN(CC5CCN(c6ccc([C@@H]7c8ccc(O)cc8CC[C@@H]7c7ccccc7)cc6)CC5)CC4)ccc3C2=O)C(=O)N1 [Compound B]
extent of epimerization ([1]; monkey): negligible
exposure of Compound B compared to Compound A ([1]; preclinical data): < 26%
pIC50 (hERG channel): < 4.70
unbound Cmax margin to hERG IC50 (hERG channel; recommended Phase 3 dose of 200 mg): ~499 ×
ER degradation (ER): does not degrade the ER
Rac (AUCtau) ([2]; 30 mg): 7.1
Tmax ([2]; 30 mg): 6.0 h
Rac (AUCtau) ([2]; 60 mg): 7.3
Rac (AUCtau) ([2]; 100 mg): 6.1 ^f
Tmax ([2]; 100 mg): 6.0 h
Rac (AUCtau) ([2]; 120 mg): 5.7
Tmax ([2]; 120 mg): 6.0 h
Rac (AUCtau) ([2]; 180 mg): 6.8
Tmax ([2]; 180 mg): 5.9 h
Rac (AUCtau) ([2]; 200 mg): 5.1
Tmax ([2]; 200 mg): 5.9 h
MR AUCtau ([2]; 250 mg): 0.36
Tmax ([2]; 250 mg): 4.1 h
Rac (AUCtau) ([2]; 360 mg): 5.9
Tmax ([2]; 360 mg): 6.0 h
Rac (AUCtau) ([2]; 500 mg): 5.9
Tmax ([2]; 500 mg): 6.0 h
Rac (AUCtau) ([2]; 700 mg): 3.7 ^g
Tmax ([2]; 700 mg): 7.8 ^g h
half-life (clinical; 30 mg): 104 h
Tmax (clinical; 30 mg): 8 h
half-life (clinical; 60 mg): 110 h
half-life (clinical; 100 mg): 99 h
Tmax (clinical; 100 mg): 7.8 h
half-life (clinical; 120 mg): 93 h
Tmax (clinical; 120 mg): 7.8 h
half-life (clinical; 180 mg): 92 h
Tmax (clinical; 180 mg): 7.8 h
half-life (clinical; 200 mg): 85 h
Tmax (clinical; 200 mg): 7.8 h
AUC(0-t) (clinical; 250 mg, AUCtau (AUC0-8)): 0.179 µg·h/mL
AUC(0-t) (clinical; 250 mg, AUCtau (AUC0-12)): 7.39 µg·h/mL
Tmax (clinical; 250 mg): 7.8 h
half-life (clinical; 360 mg): 96 h
Tmax (clinical; 360 mg): 7.8 h
half-life (clinical; 500 mg): 96 h
Tmax (clinical; 500 mg): 7.8 h
half-life (clinical; 700 mg): 52 h
Tmax (clinical; 700 mg): 7.8 h
Tmax (clinical): 7.8 h

C[C@]12CC[C@@H]3c4ccc(O)cc4C[C@@H](CCCCCCCCC[S+]([O-])CCCC(F)(F)C(F)(F)F)[C@H]3[C@@H]1CC[C@@H]2O (stereo partly shown) [fulvestrant, reference compound]
GI50 (T47D cells): 0.8 nM
GI50 (MCF7 cells): 0.4 nM

CC(C)(C#N)c1cc(Cn2cncn2)cc(C(C)(C)C#N)c1 [Anastrozole]
Anemia [3]: 1 (7.7) n (%)
Arthralgia [3]: 1 (7.7) n (%)
Asphyxia [3]: 0 n (%)
Asthenia [3]: 0 n (%)
Blood and lymphatic system disorders [3]: 1 (7.7) n (%)
Blood uric acid increased [3]: 0 n (%)
Breast pain [3]: 0 n (%)
Cardiac disorders [3]: 0 n (%)
Constipation [3]: 1 (7.7) n (%)
Diarrhea [3]: 0 n (%)
Dyspepsia [3]: 1 (7.7) n (%)
Fatigue [3]: 0 n (%)
Gastrointestinal disorders [3]: 1 (7.7) n (%)
General disorders and administration site conditions [3]: 0 n (%)
Hematocrit decreased [3]: 1 (7.7) n (%)
Heparin-induced thrombocytopenia [3]: 0 n (%)
Hepatobiliary disorders [3]: 0 n (%)
Hot flush [3]: 0 n (%)
Hyperbilirubinemia [3]: 0 n (%)
Hypercalcemia [3]: 0 n (%)
Hyperglycemia [3]: 0 n (%)
Hypernatremia [3]: 0 n (%)
Hypertransaminasemia [3]: 0 n (%)
Hypokalemia [3]: 0 n (%)
Hyponatremia [3]: 0 n (%)
Injury, poisoning and procedural complications [3]: 0 n (%)
Insomnia [3]: 0 n (%)
Investigations [3]: 1 (7.7) n (%)
Lymphopenia [3]: 1 (7.7) n (%)
Metabolism and nutrition disorders [3]: 0 n (%)
Musculoskeletal and connective tissue disorders [3]: 1 (7.7) n (%)
Myalgia [3]: 1 (7.7) n (%)
Nervous system disorders [3]: 0 n (%)
Odynophagia [3]: 0 n (%)
Procedural pain [3]: 0 n (%)
Pruritus [3]: 0 n (%)
Psychiatric disorders [3]: 0 n (%)
Pyrexia [3]: 0 n (%)
Reproductive system and breast disorders [3]: 0 n (%)
Respiratory, thoracic and mediastinal disorders [3]: 0 n (%)
Sinus bradycardia [3]: 0 n (%)
Skin and subcutaneous tissue disorders [3]: 0 n (%)
Somnolence [3]: 0 n (%)
Stomatitis [3]: 0 n (%)
Tension [3]: 0 n (%)
Vascular disorders [3]: 0 n (%)
With Any Adverse Event [3]: 2 (15.4) n (%)
